Assay [1] has as its system NCI-H358 cells (K-Ras G12C). The assay can be described thus: Potency assay: pERK in NCI-H358 cells. Format: cell-based, human. The following applies: Homo sapiens, NCI-H358; H358 KRAS G12C; read-out: pERK EC50. The procedure, abridged:
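pERK decrease read by AlphaLISA SureFire p-ERK1/2 or In-Cell Western after 4 h compound exposure at 37 °C, 5% CO2.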

For another assay, the target named is K-Ras G12C (Homo sapiens (Human), UniProt P01116+P62937, G12C). The assay can be described thus: Ras-Raf (BRAF RBD) disruption / FRET / MOA assay, KRAS G12C. Format: biochemical. As to conditions: KRAS G12C, Ras-Raf disruption/FRET/MOA assay. In a few lines: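 TR-FRET read-out: a drop in ratio relative to DMSO wells marks disruption of the Ras:RAF complex, reported as IC50. Compounds (3-fold series, 10 points, top 30 μM final) incubated 3 h at 25° C before Eu-anti-His 10 nM and APC-anti-GST 50 nM, 1.5 h more.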
K-Ras G12C, sequence (P01116-2 other isoform, or with tags, fused parts or gaps G12C): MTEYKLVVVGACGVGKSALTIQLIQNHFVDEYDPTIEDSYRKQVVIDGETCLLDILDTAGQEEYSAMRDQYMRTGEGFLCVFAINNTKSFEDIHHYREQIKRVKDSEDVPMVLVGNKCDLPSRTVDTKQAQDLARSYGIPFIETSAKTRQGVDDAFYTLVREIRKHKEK
K-Ras G12C, sequence (P62937 whole entry): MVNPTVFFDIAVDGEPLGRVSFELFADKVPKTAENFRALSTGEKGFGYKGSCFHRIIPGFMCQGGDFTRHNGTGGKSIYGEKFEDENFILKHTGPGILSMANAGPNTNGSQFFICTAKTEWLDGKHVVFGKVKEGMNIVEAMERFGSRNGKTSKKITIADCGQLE

[2] abbreviates: read-out: IC50* KRAS G12C FRET data.

Like-named read-outs stand apart in the source and are kept apart here.

What is called EC50 is the midpoint of the concentration-response curve. In general, IC50 refers to the midpoint of a concentration-inhibition curve. In the case of `CCn1c(-c2cccnc2[C@H](C)OC)c2c3cc(ccc31)-c1cc(CF)cc(c1)C[C@H](NC(=O)[C@H](C(C)C)N(C)C(=O)[C@H]1CCN(C(=O)C#CC(C)(C)N(C)C)C1)C(=O)N1CCC[C@H](N1)C(=O)OCC(C)(C)C2` (atropisomer, axis not shown) [Example A658], the EC50 in assay [1] was less than 5 µM. For the same compound, the IC50 on K-Ras G12C (setting [2]) was less than 0.01 µM.
For `C=CC(=O)N1CC(N(C)C(=O)N(C)[C@H](C(=O)N[C@H]2Cc3nc(cs3)-c3ccc4c(c3)c(c(-c3cccnc3[C@H](C)OC)n4CC(F)(F)F)CC(C)(C)COC(=O)[C@@H]3CCCN(N3)C2=O)C(C)C)C1` (atropisomer, axis not shown) [Example A711] the same measures were less than 5 µM and less than 0.01 µM.
For `C=CC(=O)N1CC[C@H]2[C@@H]1CN2C(=O)N(C)[C@H](C(=O)N[C@H]1Cc2nc(cs2)-c2ccc3c(c2)c(c(-c2cccnc2[C@H](C)OC)n3CC)CC(C)(C)COC(=O)[C@@H]2CCCN(N2)C1=O)C(C)C` (atropisomer, axis not shown) [Example A547] the same measures were less than 5 µM and 0.1 to 1 µM.
The corresponding values for `CO[C@@H](C)c1ncccc1-c1c2c3cc(ccc3n1CC(F)(F)F)-c1cccc(c1)CN(NC(=O)[C@@H](COC1CN(C(=O)C#CC(C)(C)N(C)C)C1)C(C)C)C(=O)N1CCC[C@H](N1)C(=O)OCC(C)(C)C2` (atropisomer, axis not shown) [Example A601] are less than 5 µM and less than 0.01 µM.
As for `CCn1c(-c2cccnc2[C@H](C)OC)c2c3cc(ccc31)-c1cccc(c1)C[C@H](NC(=O)[C@H](C(C)C)N1CC[C@]3(CCN(C(=O)C#CC(C)(C)N(C)C)C3)C1=O)C(=O)N1CCC[C@H](N1)C(=O)OCC(C)(C)C2` (atropisomer, axis not shown) [Example A534, (2S)-2-((S)-7-(4-(dimethylamino)-4-methylpent-2-ynoyl)-1-oxo-2,7-diazaspiro[4.4]nonan-2-yl)-N-((6^3S,4S)-1^1-ethyl-1^2-(2-((S)-1-methoxyethyl)pyridin-3-yl)-10,10-dimethyl-5,7-dioxo-6^1,6^2,6^3,6^4,6^5,6^6-hexahydro-1^1H-8-oxa-1(5,3)-indola-6(1,3)-pyridazina-2(1,3)-benzenacycloundecaphane-4-yl)-3-methylbutanamide], the concentration for a half-maximal effect (EC50) in assay [1] is less than 5 µM. The half-maximal inhibitory concentration (IC50) at K-Ras G12C (setting [2]) was less than 0.01 µM.
Consider `CCn1c(-c2cccnc2[C@H](C)OC)c2c3cc(ccc31)-c1cccc(c1)C[C@H](NC(=O)[C@H](C(C)C)N1CC[C@@]3(CCN(C(=O)C#C[C@@H]4COCCN4C)C3)C1=O)C(=O)N1CCC[C@H](N1)C(=O)OCC(C)(C)C2` (atropisomer, axis not shown) [Example A549], for which the EC50 in assay [1] is less than 5 µM. The IC50 against K-Ras G12C (IC50* KRAS G12C FRET data) was less than 0.01 µM.
Turning to `CCn1c(-c2cccnc2[C@H](C)OC)c2c3cc(ccc31)-c1cccc(c1)C[C@H](NC(=O)[C@@H](COC1CN(C(=O)C#CC(C)(C)N(C)C(C)C)C1)C(C)C)C(=O)N1CCC[C@H](N1)C(=O)OCC(C)(C)C2` (atropisomer, axis not shown) [Example A599], in assay [1], the EC50 is less than 5 µM. The IC50 on K-Ras G12C (setting [2]) is less than 0.01 µM.
For `CO[C@@H](C)c1ncccc1-c1c2c3cc(ccc3n1CC(F)(F)F)-c1csc(n1)C[C@H](NC(=O)[C@H](C(C)C)N(C)C(=O)N1CCC3(CC1)CN(C(=O)/C=C/CF)C3)C(=O)N1CCC[C@H](N1)C(=O)OCC(C)(C)C2` (atropisomer, axis not shown) [Example A602] the same measures were less than 5 µM and 0.01 to 0.1 µM.
The corresponding values for `CCn1c(-c2cccnc2)c2c3cc(ccc31)-c1csc(c1)C[C@H](NC(=O)[C@H](C(C)C)N(C)C(=O)[C@H]1CCN(C(=O)C#CCN3CCOCC3)C1)C(=O)N1CCC[C@H](N1)C(=O)OCC(C)(C)C2` [Example A205] are less than 5 µM and 0.1 to 1 µM.
The corresponding values for `CCn1c(-c2cccnc2[C@H](C)OC)c2c3cc(ccc31)N1CCO[C@@](C)(C[C@H](NC(=O)[C@H](C(C)C)N(C)C(=O)C3(F)CCN(C(=O)C#CC(C)(C)N(C)C)CC3)C(=O)N3CCC[C@H](N3)C(=O)OCC(C)(C)C2)C1` [Example A550] are less than 5 µM and less than 0.01 µM.
For `C=CC(=O)N1CC[C@]2(C1)OCN([C@H](C(=O)N[C@H]1Cc3cccc(n3)-c3ccc4c(c3)c(c(-c3cccnc3[C@H](C)OC)n4CC)CC(C)(C)COC(=O)[C@@H]3CCCN(N3)C1=O)C(C)C)C2=O` (atropisomer, axis not shown) [Example A652], the EC50 in assay [1] is less than 5 µM. Further, the IC50 at K-Ras G12C (setting [2]) is 0.1 to 1 µM.
The corresponding values for `C=CC(=O)N1CC[C@H](C(=O)N(C)[C@H](C(=O)N[C@H]2C[C@H]3CN(CCO3)c3ccc4c(c3)c(c(-c3cccnc3COC)n4CC)CC(C)(C)COC(=O)[C@@H]3CCCN(N3)C2=O)C(C)C)C1` [Example A240] are less than 5 µM and 1 to 10 µM.
For `CO[C@@H](C)c1ncccc1-c1c2c3cc(ccc3n1CC(F)(F)F)-c1cccc(c1)C[C@H](NC(=O)[C@H](C(C)C)N1CC[C@]3(CCN(C(=O)C#CC(C)(C)N(C)C)C3)C1=O)C(=O)N1CCC[C@H](N1)C(=O)OCC(C)(C)C2` (atropisomer, axis not shown) [Example A689] the same measures were less than 5 µM and less than 0.01 µM.
The corresponding values for `C=CC(=O)N1CC2(CCN2C(=O)N(C)[C@H](C(=O)N[C@H]2Cc3nc(cs3)-c3ccc4c(c3)c(c(-c3cccnc3[C@H](C)OC)n4CC)CC(C)(C)COC(=O)[C@@H]3CCCN(N3)C2=O)C(C)C)C1` (atropisomer, axis not shown) [Example A407] are less than 5 µM and less than 0.01 µM.
Consider `CCn1c(-c2cccnc2[C@H](C)OC)c2c3cc(ccc31)-c1cccc(c1)C[C@H](NC(=O)[C@H](C(C)C)N(C)C(=O)C1(F)CCN(C(=O)/C=C/CN(C)C)CC1)C(=O)N1CCC[C@H](N1)C(=O)OCC(C)(C)C2` (atropisomer, axis not shown) [Example A685], for which, in assay [1], the concentration for a half-maximal effect (EC50) is less than 5 µM. At K-Ras G12C (setting [2]), the IC50 lay within 0.01 to 0.1 µM.
The corresponding values for `C=CC(=O)N1CCO[C@H]2CN(C(=O)N(C)[C@H](C(=O)N[C@H]3C[C@H]4CN(CCO4)c4ccc5c(c4)c(c(-c4cccnc4[C@H](C)OC)n5CC)CC(C)(C)COC(=O)[C@@H]4CCCN(N4)C3=O)C(C)C)C[C@H]21` [Example A562] are less than 5 µM and 0.1 to 1 µM.
The corresponding values for `CCn1c(-c2cccnc2[C@H](C)OC)c2c3cc(ccc31)N1CCO[C@@H](C[C@H](NC(=O)[C@H](C(C)C)N(C)C(=O)C3(F)CCN(C(=O)C#CC(C)(C)N(C)C)CC3)C(=O)N3CCC[C@H](N3)C(=O)OCC(C)(C)C2)C1` (atropisomer, axis not shown) [Example A647, 1-(4-(dimethylamino)-4-methylpent-2-ynoyl)-N-((2S)-1-(((2^2S,6^3S,4S)-1^1-ethyl-1^2-(2-((S)-1-methoxyethyl)pyridin-3-yl)-10,10-dimethyl-5,7-dioxo-6^1,6^2,6^3,6^4,6^5,6^6-hexahydro-1^1H-8-oxa-2(4,2)-morpholina-1(5,3)-indola-6(1,3)-pyridazinacycloundecaphane-4-yl)amino)-3-methyl-1-oxobutan-2-yl)-4-fluoro-N-methylpiperidine-4-carboxamide] are less than 5 µM and less than 0.01 µM.
The corresponding values for `CCn1c(-c2cccnc2[C@H](C)OC)c2c3cc(ccc31)-c1cccc(n1)C[C@H](NC(=O)[C@H](C(C)C)N(C)C(=O)N1CCC13CN(C(=O)C#CC(C)(C)N(C)C)C3)C(=O)N1CCC[C@H](N1)C(=O)OCC(C)(C)C2` (atropisomer, axis not shown) [Example A623] are less than 5 µM and 0.1 to 1 µM.

Values taken from patent US11566007B2, “Ras inhibitors” (Revolution Medicines, Inc., priority 2019, dated 2023).
